Like-named read-outs stand apart in the source and are kept apart here.
Columns and labels:
[1] = test system: MOLT-4 cells; experiment: Leukemic cell uptake of free versus DcNP-associated drug, MOLT-4; assay type: cell-based, human
Experimental: FIGS. 13A-13D are a series of graphs showing the intracellular drug concentrations following incubation with free or DcNP-bound drug. Three leukemic cell lines were incubated with either free or DcNP-bound drug over four hours, and intracellular drug concentration was measured via LC-MS/MS. Both free drugs show relatively little drug uptake compared to the DcNP formulation. Free drug concentrations are roughly a quarter of the DcNP drug concentrations.
To quantify drug concentrations (both DcNP-bound and free drug), an extraction protocol was established to quantify venetoclax and zanubrutinib. In short, drug was solubilized by diluting the sample into ethyl acetate, liberating it from either the DcNP lipid matrix, mouse plasma, or both. Following centrifugation to remove organic material, the samples were dried with nitrogen gas, reconstituted in acetonitrile, and loaded onto an LC-MS/MS. Drug concentrations were quantified by comparing sample data with standard curves prepared from untreated mouse plasma spiked with known amounts of drug.
Separations were carried out on a Synergi column (100×2.0 mm) (Phenomenex, Torrance, USA). A C8 guard column (4.0×2.0 mm) was used (Phenomenex, USA). The separations were done under ambient temperature, and the flow rate was set to 0.55 ml/min. The mobile phase for the separations consisted of buffers A (water with 20 mM ammonium acetate) and B (acetonitrile). The single mobile phase ran for five minutes, and it consisted of 25% buffer A and 75% buffer B.
HL-60 cells were cultured, counted, and aliquoted into multiple 1.5 mL Eppendorf tubes. A free drug solution of ABT-199 and BGB-3111 (1:1 w/w) was added to half of the tubes, while a DcNP solution of identical drug concentrations was added to the second half of tubes. The cells in the tubes were then allowed to incubate normally. At preselected time points, one incubation tube from each group was removed from the incubator, and the cells inside were washed twice with media to remove external drug and DcNP's. Cells were then lysed with acetonitrile, and drug concentrations were quantified according to the aforementioned extraction and LC-MS/MS protocol.

[2] = Pharmacokinetic study of GT in DcNPs compared to CrEL (Example 2), plasma G, T and dFdU; assay type: in vivo, BALB/c mice; conditions: for concentration at 3 h / MRT / Vd / AUC(0-inf) / C0: female, BALB/c, mouse, plasma; for concentration at 3 h: intravenous; for MRT / Vd / AUC(0-inf) / C0: iv; for MRT / Vd: 5 mg/kg; for MRT: read-out: MRT (mean residence time); for Vd: read-out: Vss; for C0: read-out: C0 (concentration at time 0, back extrapolated)
Excerpt: Drugs extracted from biological matrices such as plasma or tissue homogenates were quantified by a Shimadzu HPLC system coupled to a 3200 QTRAP mass spectrometer (Applied Biosystems, Grand Island, N.Y.). The HPLC system consisted of two Shimadzu LC-20A pumps, a DGU-20A5 degasser, and a Shimadzu SIL-20AC HT autosampler. The mass spectrometer was equipped with an electrospray ionization (ESI) TurbolonSpray source. The system was operated with Analyst software, version 1.5.2 (ABSciex, Framingham, Mass.). Chromatographic separation of G and T was achieved using a Synergi column (100×2.0 mm; 4-μm particle size) (Phenomenex, Torrance, Calif.) with an inline C8 guard column (4.0×2.0 mm) also from Phenomenex. The flow rate was set to 0.5 mL/min with a 5 μl sample injection volume. The mobile phase for separation consisted of pump A (20 mM Ammonium Acetate in water) and B (Reagent Alcohol). […] The needle was washed with isopropanol after each injection. Analytes were monitored using multiple-reaction monitoring (MRM) for positive ions.
Statistical comparisons were performed using 2-sided t-tests with Welch's correction for unequal variances. Significance probability α was set at 0.05. Pharmacokinetic parameters from non-compartmental analysis were calculated using the trapezoidal rule and relevant pharmacokinetic equations shown in Table 3.

[3] = test system: metastatic breast cancer; conditions: cited from earlier work
[4] = MOLT-4, incubation with free drug
[5] = Control (CrEL suspension), 50/5 mg/kg G/T IV, mice
[6] = GT DcNP, 50/5 mg/kg G/T IV, mice

## CC1(C)CCC(CN2CCN(c3ccc(C(=O)NS(=O)(=O)c4ccc(NCC5CCOCC5)c([N+](=O)[O-])c4)c(Oc4cnc5[nH]ccc5c4)c3)CC2)=C(c2ccc(Cl)cc2)C1 [Venetoclax, 4-[4-[[2-(4-chlorophenyl)-4,4-dimethylcyclohexen-1-yl]methyl]piperazin-1-yl]-N-[3-nitro-4-(oxan-4-ylmethylamino)phenyl]sulfonyl-2-(1H-pyrrolo[2,3-b]pyridin-5-yloxy)benzamide]
[1]; MOLT-4, incubation with DcNP's
  peak intracellular drug concentration: 718 ng/million cells
[1]; [4]
  peak intracellular drug concentration: 176 ng/million cells

## C=CC(=O)N1CCC([C@@H]2CCNc3c(C(N)=O)c(-c4ccc(Oc5ccccc5)cc4)nn32)CC1 [Zanubrutinib, (7S)-2-(4-phenoxyphenyl)-7-(1-prop-2-enoylpiperidin-4-yl)-4,5,6,7-tetrahydropyrazolo[1,5-a]pyrimidine-3-carboxamide]
[1]; MOLT-4, incubation with DcNP's
  peak intracellular drug concentration: 208 ng/million cells
[1]; [4]
  peak intracellular drug concentration: 42 ng/million cells

## CC(=O)O[C@H]1C(=O)[C@@]2(C)[C@H]([C@H](OC(=O)c3ccccc3)[C@]3(O)C[C@H](OC(=O)[C@H](O)[C@@H](NC(=O)c4ccccc4)c4ccccc4)C(C)=C1C3(C)C)[C@]1(OC(C)=O)CO[C@@H]1C[C@@H]2O [Paclitaxel, [(1S,2S,3R,4S,7R,9S,10S,12R,15S)-4,12-diacetyloxy-15-[(2R,3S)-3-benzamido-2-hydroxy-3-phenylpropanoyl]oxy-1,9-dihydroxy-10,14,17,17-tetramethyl-11-oxo-6-oxatetracyclo[11.3.1.0^3,10.0^4,7]heptadec-13-en-2-yl] benzoate]
[2]; 50/5 mg/kg G/T IV, mice
  plasma concentration at 3 hours, DcNP times greater than CrEL: 3.3 times
[2]; [5]
  Dose/AUC (apparent clearance): 38.3 mL/h
  T1/2,app: 1.8 h
  MRT: 1 h
  Vd: 0.0356 L
  AUC(0-inf): 2610 ng·h/mL
  C0: 17700 ng/mL
[2]; [6]
  Dose/AUC (apparent clearance): 10.2 mL/h
  T1/2,app: 2.0 h
  MRT: 1 h
  Vd: 0.01 L
  AUC(0-inf): 9810 ng·h/mL
  C0: 13900 ng/mL
[2]; after GT DcNP dosing, 50/5 mg/kg G/T IV, mice
  concentration at 3 h: 643 ng/mL
[2]; after control CrEL dosing, 50/5 mg/kg G/T IV, mice
  concentration at 3 h: 194 ng/mL
[2]; mice administered GT DcNPs, 48-hour study
  time over which concentrations in plasma were detected: ≤ 6 h
[2]; mice treated with the CrEL control formulation
  plasma concentration by 24 hours: fell below the detection limit
[3]; first-line treatment, combination versus paclitaxel only
  Median survival: 15.8 months
[3]; gemcitabine 1250 mg/m^2 IV day 1, day 8 and paclitaxel 175 mg/m^2 IV combination compared to paclitaxel alone
  response rate: 26.2%

Source: US20230113802A1, “COMPOSITION AND METHOD TO PREPARE LONG-ACTING INJECTABLE SUSPENSION CONTAINING MULTIPLE CANCER DRUGS” (University of Washington, priority 2020, published 2023)
